“Also recorded” adds a separate entry of the source. Where a SMILES comes first, the peptide text is derived from it. The star is where a group is joined. Cbz = O=C(OCc1ccccc1)*
System: miR155
Assay: miR155 expression (qPCR) in RAW cells after ethanol and/or LPS stimulation with NF-κB inhibitor
Assay type: cell-based
Conditions: RAW cells pretreated 48 h with ethanol (50 mM) and MG-132 (0.25 μM) or Bay 11-7082 (0.1 uM), LPS 100 ng/mL 2 h
Procedure: FIG. 8. […] RAW cells were exposed or not to ethanol (50 mM) and MG-132 (0.25 μM) for 48 hours and were further stimulated with LPS (100 ng/mL) for 2 hours. Expression of miR155 was assayed by qPCR and data were normalized to sno202 control. The fold increase in the expression of miR155 versus nonstimulated cells is shown. Data represent the mean value (s.e.m. as error bars) of at least three independent experiments. Statistically significant differences are shown.
C. Cell culture and reagents. RAW 264.7 macrophages were purchased from American Type Culture Collection and maintained in Dulbecco's modified medium (Invitrogen Life Technologies, Carlsbad, Calif.) containing 10% FBS (HyClone, South Logan, Utah) at 37° C. in a 5% CO2 atmosphere. […]
E. RNA analysis. RNA was purified using the RNeasy kit (Qiagen Sciences, Maryland, USA) or mirVana™ miRNA Isolation Kit (Ambion) if miRs were to be analyzed. […] Quantitative RT-PCR analyses for miR-125b, miR-146aa, miR155 and sno202, used as normalizing control, were performed using TaqMan miRNA assays with reagents, primers, and probes obtained from Ambion. […] Real-time quantitative polymerase chain reaction was performed using the iCycler (Bio-Rad Laboratories Inc., Hercules, Calif.), as described previously (Romics et al., supra). […] Relative expression was calculated using the comparative threshold cycle (Ct) method. […]

| Compound | miR155 levels after ethanol and/or LPS stimulation |
| --- | --- |
| CC(C)C[C@@H](C=O)NC(=O)[C@H](CC(C)C)NC(=O)[C@H](CC(C)C)NC(=O)OCc1ccccc1 [MG-132] (Cbz-Leu-Leu-Leu-aldehyde) | decrease; also recorded: prevented miR155 increase |
| Cc1ccc(S(=O)(=O)/C=C/C#N)cc1 [Bay 11-7082] | decrease |
